Measured values as given in patent publication US20150209315A1 (Cumberland Pharmaceuticals, priority 2009, published 2015).
Values joined by “and” are separate entries in the source; they are usually repeats but may differ in a detail not shown here. Identical values can stand only once.

Experiments:
Format in all cases: in vivo, human
[1] = tested on: post-operative adult patients; experiment: Example 1: treatment failures; settings: ITT
Method: Eligible patients were randomized to one of the three treatment groups. All patients were able (but were not required) to receive morphine until approximately 45 minutes before the end of the surgical procedure. After that time, only fentanyl was allowed until the end of the operation. The first dose of ibuprofen was administered at approximately the initiation of skin closure. […] Other than ibuprofen or placebo, only morphine was administered for pain. […] Additional morphine could be administered at the discretion of the treating physician if adequate pain control had still not been achieved. Patients given non-morphine analgesics were classified as treatment failures. Treatment failures were not replaced. A treatment failure was defined as a patient that required narcotic pain medication, other than morphine, or non-narcotic medications including the use of another NSAID through the treatment period. If other narcotics (other than morphine) or NSAIDS were started, ibuprofen/placebo was discontinued. In the ITT population, there was a numerical trend but not a statistically significant difference for fewer treatment failures in the ibuprofen groups compared to the placebo group: […]

[2] = tested on: post-operative adult patients; experiment: Example 2: morphine use in the 24 hours following abdominal hysterectomy surgery; settings: 800 mg; for Morphine Requirement, Mean (SD) / Morphine Requirement, Median: 24 hours following surgery; for Transformed Morphine Requirement, LSMeans (SE) / Transformed Morphine Requirement, Max / Transformed Morphine Requirement, Mean (SD) / Transformed Morphine Requirement, Median / Transformed Morphine Requirement, Min: Box Cox transformation
Method: To be eligible for this study, the patients met the following inclusion criteria: 1) scheduled for elective abdominal hysterectomy surgery with anticipated need for post-operative I.V. morphine analgesia with anticipated use of greater than 24 hours; 2) adequate IV access; and 3) anticipated hospital stay greater than 24 hours. The study exclusion criteria required patients only between the ages of 18 and 70 years old. […] Efficacy was measured by comparing the reduction in morphine use over the 24 hours immediately post surgery. Efficacy was measured by reduction in the requirement for the narcotic analgesic, morphine, in the 24 hours post surgery.
(§1) The Clinical Trial Material (“CTM”) was mixed in 250 mL normal saline. Saline was chosen as the control group (placebo) for this study, to ensure blinding and allow for analysis of treatment effect.
By protocol, patients were to be dosed every six hours for five doses, then as necessary (PRN) for pain every six hours for up to five days post surgery. However, after 24 hours through day 5, CTM had to be discontinued if there was a requirement for narcotic pain medication other than morphine or non-narcotic medications including the use of another NSAID. Further, after 24 hours through day 5, CTM may have been discontinued if there was resolution of pain, no IV access or discharge from the hospital.
The study participants were randomized based on criteria for an efficacy evaluable population (EEP) versus an intent to treat population (ITT). […] The intent-to-treat population (ITT) consists of AT patients who received at least one post-surgical dose of CTM or at least one dose of morphine for break-through pain. The efficacy evaluable population (EEP) consists of all ITT patients who received each of the first five doses of CTM within 60 minutes of the scheduled time and who have the 6-hour and 28-hour VAS with movement assessments.
Eligible patients were randomized to one of the two treatment groups. All patients were able (but were not required) to receive morphine until approximately 45 minutes before the end of the surgical procedure. After that time, only fentanyl was allowed until the end of the operation. […] Upon discharge from the operating room, patients had access to morphine (approximately 1-2 mg q 5 minutes) upon patient request or delivered by patient-controlled analgesia (PCA). […] Upon discharge from the operating room, patients had access to 1 mg morphine every 5 minutes upon request or by patient-controlled analgesia (PCA). […] Patients given non-morphine analgesics were classified as treatment failures. Treatment failures were not replaced.
(§2) Patients were evaluated and compared for morphine requirements between the active doses and placebo using analysis of variance and covariance procedures at an overall alpha level of 0.05. Secondary efficacy parameters were also evaluated and compared among the treatment groups using appropriate statistical methods described in the statistical analysis section of the protocol. Safety information was compared between the treatment groups using Chi-Square or Cochran-Mantel-Haenszel test. Demographic, background and baseline information among the treatment groups was also described.
The primary endpoint for the study was reduction in the requirement for morphine use in the 24 hours following surgery as measured by total morphine usage compared to placebo. Analysis of variance and covariance procedures were used to compare the reduction in the requirement for morphine use in the 24 hours following surgery among the treatment groups. Dunnet's test was used as a multiple comparison test to compare active dose groups with the placebo group at an overall alpha level of 0.05. In the primary model, center was introduced as a covariate.

[3] = tested on: post-operative adult patients; experiment: Example 2: adverse events; settings: 800 mg
Method: as §2

[4] = tested on: patients undergoing orthopedic surgical procedures; experiment: Example 3: pain with movement measured with VAS; settings: 800 mg, immediately post-surgery
Method: Efficacy was measured by comparing the reduction in morphine use over the 24 hours immediately post surgery. Efficacy was measured by reduction in the requirement for the narcotic analgesic, morphine, in the 24 hours post surgery.
as §1
The study participants were randomized based on criteria for an efficacy evaluable population (EEP) versus an intent to treat population (ITT).
Eligible patients were randomized to one of the two treatment groups.
(§3) Patients were evaluated and compared for morphine requirements between the active doses and placebo using analysis of variance and covariance procedures at an overall alpha level of 0.05. Secondary efficacy parameters were also evaluated and compared among the treatment groups using appropriate statistical methods described in the statistical analysis section of the protocol. For the adverse events, instead of using an unadjusted Chi-square test and a Cochran-Mantel-Haenszel test adjusted for center to compare treatment groups with respect to the numbers of patients reporting AEs, a Fisher's exact test was used to compare treatment groups for any AE that was reported by five or more patients.

[5] = tested on: patients undergoing orthopedic surgical procedures; experiment: Example 3: additional measurements of efficacy; settings: 800 mg
Source text: Additional measurements of efficacy were incidence of treatment failure, time to GI motility, time to resumption of ambulation, time to resumption of liquid intake, time to resumption of solid diet, and length of hospital stay.

[6] = tested on: patients undergoing orthopedic surgical procedures; experiment: Example 3: adverse events
Method: as §3

[7] = tested on: fever in hospitalized patients; experiment: Clinical trials of intravenous ibuprofen for fever

In the case of `CC(C)Cc1ccc(C(C)C(=O)O)cc1` (stereo not shown) [Ibuprofen, 2-(4-isobutylphenyl) propionic acid], the “treatment failures, number of patients” value ([1]; 400 mg) is reported as 7, the “treatment failures, percent of patients” value ([1]; 400 mg) is reported as 5% and the “treatment failures, number of patients” value ([1]; 800 mg) is reported as 4. For the same compound, the “treatment failures, percent of patients” value ([1]; 800 mg) was 3%, the “Morphine Requirement, Max” value ([2]; Efficacy Evaluable) was 143.3 mg and the “Morphine Requirement, Min” value ([2]; Efficacy Evaluable) was 4.0 mg. The “Morphine Requirement, Mean (SD)” value ([2]; Efficacy Evaluable) was 45.5 mg and 45.5 (24.6) mg, the “Morphine Requirement, Median” value ([2]; Efficacy Evaluable) was 42.0 mg and the “Transformed Morphine Requirement, LSMeans (SE)” value ([2]; Efficacy Evaluable) was 10.8 (0.3) mg. The “Transformed Morphine Requirement, Max” value ([2]; Efficacy Evaluable) was 21.2 mg, the “Transformed Morphine Requirement, Mean (SD)” value ([2]; Efficacy Evaluable) was 10.7 (3.5) mg and the “Transformed Morphine Requirement, Median” value ([2]; Efficacy Evaluable) was 10.7 mg. For the same compound, the “Transformed Morphine Requirement, Min” value ([2]; Efficacy Evaluable) was 2.0 mg, the “Morphine Requirement, Max” value ([2]; Intent-to-Treat) was 143.3 mg and the “Morphine Requirement, Min” value ([2]; Intent-to-Treat) was 4.0 mg. The “Morphine Requirement, Mean (SD)” value ([2]; Intent-to-Treat) was 47.3 mg and 47.3 (25.6) mg, the “Morphine Requirement, Median” value ([2]; Intent-to-Treat) was 43.5 mg and the “Transformed Morphine Requirement, LSMeans (SE)” value ([2]; Intent-to-Treat) was 12.1 (0.4) mg. For the same compound, the “Transformed Morphine Requirement, Max” value ([2]; Intent-to-Treat) was 23.5 mg, the “Transformed Morphine Requirement, Mean (SD)” value ([2]; Intent-to-Treat) was 11.8 (4.0) mg and the “Transformed Morphine Requirement, Median” value ([2]; Intent-to-Treat) was 11.8 mg. The “Transformed Morphine Requirement, Min” value ([2]; Intent-to-Treat) was 2.0 mg, the “patients experiencing adverse events or serious adverse events vs placebo” value [3] was “no significant differences in the number of patients experiencing adverse events or serious adverse events between groups” and the “decrease in the mean VAS with movement” value ([4]; AT) was 13.9%. The “decrease in the mean VAS with movement” value ([4]; efficacy evaluable) was 13.6%, the “decrease in the mean VAS with movement” value ([4]; intent-to-treat) was 14.3% and the “treatment failure, time to GI motility, ambulation, liquid intake, solid diet, length of hospital stay vs placebo” value [5] was “no significant differences between treatment groups”. For the same compound, the deaths ([6]; 800 mg) was “no deaths reported”, the “incidence of serious adverse events vs placebo” value ([6]; 800 mg) was “no statistically significant difference” and the “patients that experienced dyspepsia (treatment-emergent adverse events)” value ([6]; 800 mg vs placebo) was “significantly more patients in the placebo group”. For the same compound, the “patients that experienced vomiting (treatment-emergent adverse events)” value ([6]; 800 mg vs placebo) was “significantly more patients in the intravenous ibuprofen group”, the “treated patients with reduced fever” value ([7]; at 4 hours) was 100% and the “placebo-treated vs IV Ibuprofen treated patients with uncontrolled fever” value ([7]; at 24 hours) was ~4 times. The reduction in temperature ([7]; critically ill patients, 48-hour study period) was “Significant reduction in temperature was maintained”, the “acetaminophen requirement and fever control vs acetaminophen alone” value ([7]; critically ill patients, subset analysis) was “required less acetaminophen and had better fever control” and the “Rapid fever reduction seen as fast as” value ([7]; malaria patients) was 30 min. The “patients with significant fever reduction” value ([7]; phase 3 clinical trial, within 4 hours, vs 32% with placebo) was 77%.
